Values of other authors in patent publication US20220023314A1, “STABLE FORMULATIONS OF ANESTHETICS AND […] FORMS” (HALO SCIENCE LLC, priority 2018, published 2022).

Conditions: in vivo

## C[C@]12CC[C@@H](O)C[C@@H]1CC[C@H]1[C@@H]3CC[C@H](C(=O)CO)[C@@]3(C)CC(=O)[C@@H]12 [Alphadolone]
  potency relative to alphaxalone: half as potent
